From ChEMBL document CHEMBL1201862, “PubChem BioAssay data set” (2004)
Calls of active or inactive are those of the source.

Assays:
[1] = system: Jurkat; assay: antigen receptor-induced NF-kB inhibitors, dose response, Jurkat, luciferase reporter, luminescence, B- and T-cell (AID 489004); format: functional, cell-based; conditions: Homo sapiens;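 note: NF-kB luciferase reporter Jurkat cells stimulated with PMA plus ionomycin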
[2] = cytotoxicity in HEK-293T NF-kB-Luc cells, dose response, cytotoxicity control for B/T-cell NF-kB inhibitor project, cell-based, uHTS hits (AID 489019); format: functional;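 note: IC50 reflects cytotoxicity as loss of cell viability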
[3] = Luminescence-based counterscreen assay for KLF5 inhibitors: dose response cell-based high throughput screening assay to identify cytotoxic compounds using the IEC-6 intestinal epithelial cell line. [Related pubchem assays: 1700 (Primary screen.), 1834 (Confirmation screen.), 1858 (Summary AID.), 1905 (Counterscreen.)]; format: functional
[4] = MC4R antagonists, dose response, counter-screen for LGR2 antagonist project, cell-based, plate reader, cherry pick (AID 743444); format: functional;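 note: transfected HEK 293 cells stimulated with alpha-MSH peptide; potency of inhibitors of the alpha-MSH evoked signal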
[5] = system: BJ; assay: cells; format: functional, cell-based; conditions: Homo sapiens
[6] = HEK293 cell cytotoxicity, dose response, cytotoxicity control, plate reader, cherry-picked samples (AID 743446); format: functional, cell-based
[7] = HepG2 cell cytotoxicity, dose response, cytotoxicity control for Shn3 inhibitor project, CellTiter-Glo, cherry-picked (AID 624134); format: functional, cell-based
[8] = molecular target: T1, Heat shock factor protein 1 (Mus musculus, UniProt P38532); assay: inhibition of MG132-induced HSE-luciferase signal, confirmation, cell-based, NIH3T3, luminescence, dose retest (AID 2382); format: functional;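 note: NIH3T3 fibroblasts with HSF1-driven luciferase reporter stressed by proteasome inhibitor MG132; luminescence from HSF1-driven luciferase expression after 8 hours of MG132 stress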
T1 sequence (P38532 whole entry): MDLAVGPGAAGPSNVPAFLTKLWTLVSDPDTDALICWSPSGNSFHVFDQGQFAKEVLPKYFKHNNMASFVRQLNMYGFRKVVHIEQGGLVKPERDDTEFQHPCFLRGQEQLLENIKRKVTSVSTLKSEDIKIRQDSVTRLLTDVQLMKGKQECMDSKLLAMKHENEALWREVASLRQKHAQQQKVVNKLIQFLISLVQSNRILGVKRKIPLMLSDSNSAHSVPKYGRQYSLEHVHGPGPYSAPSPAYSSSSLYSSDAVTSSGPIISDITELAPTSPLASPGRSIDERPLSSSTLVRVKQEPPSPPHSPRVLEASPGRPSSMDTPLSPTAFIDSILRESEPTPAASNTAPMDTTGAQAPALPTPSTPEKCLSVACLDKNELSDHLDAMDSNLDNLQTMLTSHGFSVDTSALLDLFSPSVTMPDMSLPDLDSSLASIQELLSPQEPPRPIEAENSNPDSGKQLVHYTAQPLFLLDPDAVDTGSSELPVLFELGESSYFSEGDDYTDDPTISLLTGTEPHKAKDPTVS

[9] = molecular target: T2, Protein skinhead-1 (Caenorhabditis elegans, UniProt P34707); format: functional
T2 sequence (P34707 whole entry): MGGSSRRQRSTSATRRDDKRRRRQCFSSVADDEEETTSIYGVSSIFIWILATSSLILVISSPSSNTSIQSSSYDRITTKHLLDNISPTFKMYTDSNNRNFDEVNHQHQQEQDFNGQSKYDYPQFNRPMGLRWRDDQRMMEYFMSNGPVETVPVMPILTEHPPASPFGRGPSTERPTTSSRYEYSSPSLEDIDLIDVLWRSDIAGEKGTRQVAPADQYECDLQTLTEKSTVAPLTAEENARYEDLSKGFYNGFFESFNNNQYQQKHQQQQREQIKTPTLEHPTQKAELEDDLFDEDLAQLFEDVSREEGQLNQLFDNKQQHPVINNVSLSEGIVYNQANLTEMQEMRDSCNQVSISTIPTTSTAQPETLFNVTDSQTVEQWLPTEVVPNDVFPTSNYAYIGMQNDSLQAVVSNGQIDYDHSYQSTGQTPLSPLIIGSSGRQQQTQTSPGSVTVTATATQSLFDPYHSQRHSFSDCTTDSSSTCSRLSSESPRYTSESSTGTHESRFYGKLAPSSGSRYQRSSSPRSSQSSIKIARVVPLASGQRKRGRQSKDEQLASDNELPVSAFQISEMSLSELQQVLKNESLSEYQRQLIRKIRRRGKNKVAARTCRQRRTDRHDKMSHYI

[10] = control 3'UTR Renilla luciferase suppression, dose response, counter-screen for Shn3 inhibitor project, cell-based, Clone20-Shn3RL, cherry-picked (AID 624133); format: functional
[11] = cytotoxicity toward DRD oncogenic fibroblasts, dose response, cell-based, non-viral oncogenic, luminescence (AID 1934); format: functional; conditions: Homo sapiens
[12] = system: BJ; assay: cytotoxicity toward Ras-transformed BJeLR fibroblasts, dose response, cell-based, alamar blue fluorescence, cherrypicked samples (AID 2631); format: functional; conditions: Homo sapiens;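 note: confirmatory dose-response assay in RAS-dependent BJ fibroblasts engineered with TERT, LT and ST, with cytotoxicity read by fluorescence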
[13] = Shn3 3'UTR reporter inhibitors, dose response, cell-based, Clone20 osteoblasts, firefly luciferase, cherry-picked (AID 624132); format: functional;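 note: firefly luciferase luminescence from reporter carrying the Shn3 3'UTR in osteoblasts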
[14] = Luminescence Cell-Based Dose Confirmation HTS to Identify Inhibitors of Platelet Dense Granule Release. [Related pubchem assays: 1663 (Primary HTS), 1678 (Summary of Project)]; format: functional
[15] = A549 cell cytotoxicity, dose response, cytotoxicity control, plate reader, cherry-pick, antagonist series (AID 743412); format: functional, cell-based
[16] = system: BJ; assay: cytotoxicity toward BJ-TERT-LT-ST fibroblasts, dose response, cell-based, RAS-independent, luminescence (AID 1935); format: functional; conditions: Homo sapiens;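 note: BJ fibroblasts immortalized with TERT plus LT and ST oncogenes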
[17] = LGR2 antagonists, dose response, cell-based, HEK293, CRE-luciferase reporter, cherry pick, set 2 (AID 743343); format: functional;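 note: transfected cells were stimulated with diluted bursicon conditioned medium after compound addition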
[18] = system: BJ; assay: cytotoxicity toward BJ-TERT fibroblasts, dose response, cell-based, RAS-independent, luminescence (AID 1933); format: functional; conditions: Homo sapiens
[19] = HepG2 cell cytotoxicity, dose response, cytotoxicity control, plate reader, cherry-pick, antagonist series (AID 743416); format: functional, cell-based

Structure (SMILES): c1ccc(-c2ccc(-c3nc(-c4ccccn4)no3)cc2)cc1
- IC50 [1]: 1.17 µM (active)
- IC50 [2]: > 80 µM (inactive)
- IC50 [3]: 9.09 µM (active)
- AC50 [4]: 0.261 µM (active)
- EC50 [5]: 1.69 µM (active)
- AC50 [6]: 6.22 µM (active)
- AC50 [7]: 5.26 µM (active)
- EC50 [8]: < 0.16 µM (active)
- IC50 [9]: > 100 µM (inactive)
- AC50 [10]: 32.7 µM (active)
- EC50 [11]: 3.27 µM (active)
- EC50 [12]: > 133 µM (inactive)
- AC50 [13]: 3.75 µM (active)
- EC50 [14]: 0.189 µM (active)
- AC50 [15]: 5.48 µM (active)
- EC50 [16]: 9.38 µM (inconclusive)
- AC50 [17]: 0.236 µM (active)
- EC50 [18]: 3.64 µM (active)
- AC50 [19]: 4.67 µM (active)
